From ChEMBL document CHEMBL6109139, “Rational Design of the First Dual Agonist at Trace Amine-Associated Receptor 1 and 5-HT2C Receptors Based on Binding Pocket Similarity for the Treatment of Schizophrenia and Alzheimer's Disease-Related Psychosis” (J Med Chem, 2025)
Activity calls are given as the source filed them. No cut-off for these calls is given here.

Columns and labels:
[1] = target: T1, 5-hydroxytryptamine receptor 2C (Homo sapiens, UniProt P28335); experiment: Agonist activity at recombinant human 5-HT2CR expressed in HEK293 cells incubated for 2 hrs by FLIPR calcium assay; type: functional, cell-based
T1 sequence (P28335 whole entry): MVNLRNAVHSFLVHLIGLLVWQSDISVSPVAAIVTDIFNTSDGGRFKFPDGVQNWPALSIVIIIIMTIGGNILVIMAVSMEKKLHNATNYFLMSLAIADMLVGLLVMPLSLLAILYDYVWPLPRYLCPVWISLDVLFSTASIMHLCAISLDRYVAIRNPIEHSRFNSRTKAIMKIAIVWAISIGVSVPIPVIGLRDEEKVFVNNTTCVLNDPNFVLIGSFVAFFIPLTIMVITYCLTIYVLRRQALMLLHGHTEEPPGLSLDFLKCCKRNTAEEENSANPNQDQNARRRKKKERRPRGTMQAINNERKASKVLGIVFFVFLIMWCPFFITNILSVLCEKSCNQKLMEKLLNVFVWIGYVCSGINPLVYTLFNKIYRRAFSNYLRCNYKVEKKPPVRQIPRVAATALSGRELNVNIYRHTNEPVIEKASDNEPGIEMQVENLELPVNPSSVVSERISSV

[2] = system: 5-hydroxytryptamine receptor 2C (Homo sapiens), P28335 [D134A]; experiment: Agonist activity at 5HT2CR D134A mutant (unknown origin) expressed in HEK293 cells assessed as IP1 level by HTRF IP1 competitive binding assay; type: cell-based
Chain of 5-hydroxytryptamine receptor 2C (Homo sapiens), P28335 [D134A] (P28335 whole entry D134A): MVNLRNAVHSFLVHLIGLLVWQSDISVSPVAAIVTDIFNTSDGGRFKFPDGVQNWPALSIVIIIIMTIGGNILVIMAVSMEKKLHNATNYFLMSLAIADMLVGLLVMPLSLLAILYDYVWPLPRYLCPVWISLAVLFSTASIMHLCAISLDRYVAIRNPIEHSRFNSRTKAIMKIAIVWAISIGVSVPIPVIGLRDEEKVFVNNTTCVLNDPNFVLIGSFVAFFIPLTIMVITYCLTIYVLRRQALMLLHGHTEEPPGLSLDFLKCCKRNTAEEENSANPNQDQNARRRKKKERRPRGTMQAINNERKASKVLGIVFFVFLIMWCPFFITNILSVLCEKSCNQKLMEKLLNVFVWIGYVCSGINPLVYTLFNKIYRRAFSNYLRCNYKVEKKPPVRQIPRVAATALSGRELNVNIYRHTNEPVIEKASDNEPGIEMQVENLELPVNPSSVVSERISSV

[3] = system: 5-hydroxytryptamine receptor 2C (Homo sapiens), P28335 [W324A]; experiment: Agonist activity at 5HT2CR W324A mutant (unknown origin) expressed in HEK293 cells assessed as IP1 level by HTRF IP1 competitive binding assay; type: cell-based
Chain of 5-hydroxytryptamine receptor 2C (Homo sapiens), P28335 [W324A] (P28335 whole entry W324A): as the sequence (P28335 whole entry D134A) above, with A134D, W324A counted along it

[4] = Plasma protein binding in rat assessed as unbound fraction by LC-MS/MS analysis; type: ADME, cell-free
[5] = target: Cytochrome P450 2B6 (Homo sapiens, UniProt P20813); experiment: Inhibition of CYP2B6 in human liver microsomes in presence of NADPH by LC-MS/MS analysis; type: ADME, Microsome
Chain of Cytochrome P450 2B6 (P20813 whole entry): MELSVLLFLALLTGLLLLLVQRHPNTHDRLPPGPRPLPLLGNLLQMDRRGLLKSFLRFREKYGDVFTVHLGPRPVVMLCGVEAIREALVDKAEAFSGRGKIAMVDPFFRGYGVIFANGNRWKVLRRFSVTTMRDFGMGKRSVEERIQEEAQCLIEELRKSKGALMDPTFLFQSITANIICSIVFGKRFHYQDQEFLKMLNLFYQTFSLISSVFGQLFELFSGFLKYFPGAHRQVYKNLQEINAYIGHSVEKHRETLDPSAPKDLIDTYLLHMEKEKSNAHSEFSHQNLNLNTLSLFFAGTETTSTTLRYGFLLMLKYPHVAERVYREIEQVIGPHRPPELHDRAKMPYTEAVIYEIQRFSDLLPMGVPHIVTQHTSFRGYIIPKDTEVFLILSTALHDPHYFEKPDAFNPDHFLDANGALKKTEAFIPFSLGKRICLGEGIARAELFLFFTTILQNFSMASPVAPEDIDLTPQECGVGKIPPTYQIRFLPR

[6] = target: 5-hydroxytryptamine receptor 2C (Mus musculus, UniProt P34968); experiment: Agonist activity at mouse 5-HT2CR; type: functional
Chain of 5-hydroxytryptamine receptor 2C (Mus musculus, UniProt P34968) (P34968 whole entry): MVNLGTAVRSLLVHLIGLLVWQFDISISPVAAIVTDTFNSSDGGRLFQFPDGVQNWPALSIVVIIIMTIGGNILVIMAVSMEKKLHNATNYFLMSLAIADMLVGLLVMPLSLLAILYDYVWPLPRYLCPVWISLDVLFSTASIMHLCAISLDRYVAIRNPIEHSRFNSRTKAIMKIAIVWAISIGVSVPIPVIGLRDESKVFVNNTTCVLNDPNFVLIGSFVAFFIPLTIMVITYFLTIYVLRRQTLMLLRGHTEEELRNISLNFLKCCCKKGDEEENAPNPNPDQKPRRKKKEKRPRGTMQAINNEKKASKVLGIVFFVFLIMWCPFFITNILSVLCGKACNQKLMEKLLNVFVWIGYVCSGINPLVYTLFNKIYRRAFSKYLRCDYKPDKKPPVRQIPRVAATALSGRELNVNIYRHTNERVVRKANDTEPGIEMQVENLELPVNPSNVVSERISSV

[7] = target: 5-hydroxytryptamine receptor 7 (Homo sapiens, UniProt P34969); experiment: Agonist activity at recombinant human 5-HT7 expressed in HEK293 cells by measuring maximum efficacy at 2 uM by FLIPR calcium assay relative to control; type: functional, cell-based; conditions: filed as agonist
Chain of 5-hydroxytryptamine receptor 7 (P34969 whole entry): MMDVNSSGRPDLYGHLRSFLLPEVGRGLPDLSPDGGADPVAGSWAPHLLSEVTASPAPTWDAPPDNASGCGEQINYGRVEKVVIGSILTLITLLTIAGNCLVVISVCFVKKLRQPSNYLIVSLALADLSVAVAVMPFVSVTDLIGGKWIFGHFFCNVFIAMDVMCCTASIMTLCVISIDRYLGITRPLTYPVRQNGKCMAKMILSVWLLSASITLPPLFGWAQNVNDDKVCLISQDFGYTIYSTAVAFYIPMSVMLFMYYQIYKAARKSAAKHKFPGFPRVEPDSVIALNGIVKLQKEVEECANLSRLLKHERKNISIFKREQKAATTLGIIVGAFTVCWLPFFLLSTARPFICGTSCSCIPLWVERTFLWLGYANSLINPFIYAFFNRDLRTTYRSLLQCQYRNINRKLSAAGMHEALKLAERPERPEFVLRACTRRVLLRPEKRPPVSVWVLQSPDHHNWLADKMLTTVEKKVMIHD

[8] = target: 5-hydroxytryptamine receptor 1B (Homo sapiens) (UniProt P28222); experiment: Binding affinity to 5-HT1B (unknown origin) at 10 uM by radioligand binding assay relative to control
[9] = target: D(1A) dopamine receptor (Homo sapiens) (UniProt P21728); experiment: Binding affinity to D1 receptor (unknown origin) at 10 uM by radioligand binding assay relative to control
Chain of D(1A) dopamine receptor (Homo sapiens) (P21728 whole entry): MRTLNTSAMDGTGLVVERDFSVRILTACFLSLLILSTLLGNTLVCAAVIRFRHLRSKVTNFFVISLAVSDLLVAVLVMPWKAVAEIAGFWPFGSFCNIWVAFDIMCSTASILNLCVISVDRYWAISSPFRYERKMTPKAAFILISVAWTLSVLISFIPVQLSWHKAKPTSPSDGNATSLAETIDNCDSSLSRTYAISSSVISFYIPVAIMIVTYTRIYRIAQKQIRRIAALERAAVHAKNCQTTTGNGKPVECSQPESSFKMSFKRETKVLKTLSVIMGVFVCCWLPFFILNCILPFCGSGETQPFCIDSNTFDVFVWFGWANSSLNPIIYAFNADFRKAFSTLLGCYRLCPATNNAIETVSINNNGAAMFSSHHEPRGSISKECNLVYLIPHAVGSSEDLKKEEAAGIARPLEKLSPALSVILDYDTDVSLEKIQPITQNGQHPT

[10] = target: Beta-2 adrenergic receptor (Homo sapiens) (UniProt P07550); experiment: Binding affinity to beta 2 receptor (unknown origin) at 10 uM by radioligand binding assay relative to control
Chain of Beta-2 adrenergic receptor (Homo sapiens) (P07550 whole entry, looked up): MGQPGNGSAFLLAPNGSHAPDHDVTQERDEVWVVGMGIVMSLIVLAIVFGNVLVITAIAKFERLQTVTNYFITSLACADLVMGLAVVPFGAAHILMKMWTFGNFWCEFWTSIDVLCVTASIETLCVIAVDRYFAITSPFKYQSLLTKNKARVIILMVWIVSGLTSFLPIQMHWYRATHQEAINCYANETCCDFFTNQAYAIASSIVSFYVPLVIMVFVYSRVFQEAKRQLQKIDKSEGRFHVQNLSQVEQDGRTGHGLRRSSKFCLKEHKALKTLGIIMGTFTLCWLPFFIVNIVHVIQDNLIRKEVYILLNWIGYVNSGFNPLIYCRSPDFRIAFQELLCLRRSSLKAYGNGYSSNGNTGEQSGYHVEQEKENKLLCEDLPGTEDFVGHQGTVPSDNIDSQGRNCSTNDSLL

[11] = target: Glucocorticoid receptor (Homo sapiens) (UniProt P04150); experiment: Binding affinity to GR receptor (unknown origin) at 10 uM by radioligand binding assay relative to control
Chain of Glucocorticoid receptor (Homo sapiens) (P04150 whole entry): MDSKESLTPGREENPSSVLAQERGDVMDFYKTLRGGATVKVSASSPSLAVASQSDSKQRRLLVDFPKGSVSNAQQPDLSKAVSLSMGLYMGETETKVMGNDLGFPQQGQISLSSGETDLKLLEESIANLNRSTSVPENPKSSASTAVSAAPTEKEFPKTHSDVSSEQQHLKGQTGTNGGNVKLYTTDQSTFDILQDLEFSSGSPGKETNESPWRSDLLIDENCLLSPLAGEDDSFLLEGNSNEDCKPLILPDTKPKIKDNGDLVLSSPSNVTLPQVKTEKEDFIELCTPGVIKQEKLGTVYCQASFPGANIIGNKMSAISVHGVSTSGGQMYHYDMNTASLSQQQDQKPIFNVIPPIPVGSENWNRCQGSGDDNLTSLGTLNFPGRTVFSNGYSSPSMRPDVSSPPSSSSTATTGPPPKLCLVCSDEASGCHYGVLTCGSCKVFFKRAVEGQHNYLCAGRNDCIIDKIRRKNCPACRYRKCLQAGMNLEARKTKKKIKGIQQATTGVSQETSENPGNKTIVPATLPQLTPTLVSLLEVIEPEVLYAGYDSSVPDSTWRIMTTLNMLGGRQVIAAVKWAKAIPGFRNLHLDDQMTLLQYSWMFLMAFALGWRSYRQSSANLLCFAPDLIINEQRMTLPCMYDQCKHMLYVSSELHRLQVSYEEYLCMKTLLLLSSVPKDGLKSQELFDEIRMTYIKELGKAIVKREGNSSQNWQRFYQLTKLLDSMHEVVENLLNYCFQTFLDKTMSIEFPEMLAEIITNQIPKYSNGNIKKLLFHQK

[12] = target: Muscarinic acetylcholine receptor M2 (Homo sapiens) (UniProt P08172); experiment: Binding affinity to M2 receptor (unknown origin) at 10 uM by radioligand binding assay relative to control
Chain of Muscarinic acetylcholine receptor M2 (Homo sapiens) (P08172 whole entry): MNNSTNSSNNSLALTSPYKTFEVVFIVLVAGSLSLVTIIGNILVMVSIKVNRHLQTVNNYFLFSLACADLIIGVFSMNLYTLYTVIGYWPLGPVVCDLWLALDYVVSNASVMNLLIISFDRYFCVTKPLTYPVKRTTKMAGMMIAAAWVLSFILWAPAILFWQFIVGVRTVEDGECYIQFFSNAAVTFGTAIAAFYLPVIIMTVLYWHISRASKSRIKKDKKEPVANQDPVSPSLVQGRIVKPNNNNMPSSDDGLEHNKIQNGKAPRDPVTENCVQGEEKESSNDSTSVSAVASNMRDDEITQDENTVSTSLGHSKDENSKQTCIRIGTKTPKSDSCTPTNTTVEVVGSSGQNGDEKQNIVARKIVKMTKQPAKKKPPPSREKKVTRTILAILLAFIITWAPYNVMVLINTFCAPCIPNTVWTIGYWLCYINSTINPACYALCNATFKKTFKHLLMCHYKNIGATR

[13] = target: Muscarinic acetylcholine receptor M3 (Homo sapiens) (UniProt P20309); experiment: Binding affinity to M3 receptor (unknown origin) at 10 uM by radioligand binding assay relative to control
Chain of Muscarinic acetylcholine receptor M3 (Homo sapiens) (P20309 whole entry, looked up): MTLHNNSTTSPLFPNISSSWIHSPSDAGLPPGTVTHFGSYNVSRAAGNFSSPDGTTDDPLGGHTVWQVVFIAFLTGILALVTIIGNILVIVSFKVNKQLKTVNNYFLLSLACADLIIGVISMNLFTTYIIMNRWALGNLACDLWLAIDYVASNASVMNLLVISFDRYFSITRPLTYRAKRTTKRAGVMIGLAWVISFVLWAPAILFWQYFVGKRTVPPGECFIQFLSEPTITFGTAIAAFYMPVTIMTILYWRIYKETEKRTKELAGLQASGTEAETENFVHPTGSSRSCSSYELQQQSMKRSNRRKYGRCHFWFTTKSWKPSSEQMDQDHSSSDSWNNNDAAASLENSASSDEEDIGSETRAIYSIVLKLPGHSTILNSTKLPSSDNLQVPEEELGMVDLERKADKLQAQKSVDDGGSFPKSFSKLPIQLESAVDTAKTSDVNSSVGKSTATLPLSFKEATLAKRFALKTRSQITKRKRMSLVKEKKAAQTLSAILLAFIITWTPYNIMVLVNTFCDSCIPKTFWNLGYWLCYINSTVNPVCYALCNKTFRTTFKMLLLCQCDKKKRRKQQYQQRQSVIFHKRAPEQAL

[14] = Mutagenicity in Salmonella typhimurium TA102 by Ames test; type: toxicity; conditions: salmonella enterica subsp. enterica serovar typhimurium
[15] = Cardiotoxicity in conscious cynomolgus monkey assessed as waveform abnormalities in leas-II ECG at 3.125 to 12.5 mg/kg, IG measured within 24 hrs by EcgAUTO analysis; type: toxicity, organism-based, Macaca fascicularis; conditions: in vivo, po, dose 3.125-12.5 mg/kg
[16] = Cardiotoxicity in conscious cynomolgus monkey assessed as decrease in body temperature at 3.125 to 12.5 mg/kg, IG by digital thermometer analysis; type: toxicity, organism-based, Macaca fascicularis; conditions: in vivo, po, dose 3.125-12.5 mg/kg
[17] = Toxicity in Sprague-Dawley rat assessed as normal spontaneous movement at 2.5 to 7.5 mg/kg, po administered once daily for 4 weeks; type: organism-based; conditions: in vivo, 672 h, dose 2.5-7.5 mg/kg
[18] = Toxicity in Sprague-Dawley rat assessed as good general health at 2.5 to 7.5 mg/kg, po administered once daily for 4 weeks and measured after 4 weeks; type: organism-based; conditions: in vivo, 1344 h, dose 2.5-7.5 mg/kg, time 8 weeks
[19] = Toxicity in male Sprague-Dawley rat assessed as suppression of food consumption at 7.5 mg/kg, po administered once daily for 4 weeks and measured after 4 weeks; type: organism-based; conditions: in vivo, 1344 h, time 8 weeks
[20] = Toxicity in male Sprague-Dawley rat assessed as change in prolactin level at 2.5 to 7.5 mg/kg, po administered once daily for 4 weeks and measured after 4 weeks; type: organism-based; conditions: in vivo, 1344 h, dose 2.5-7.5 mg/kg, time 8 weeks
[21] = Toxicity in male Sprague-Dawley rat assessed as piloerection at 7.5 mg/kg, po administered once daily for 4 weeks; type: organism-based; conditions: in vivo, 672 h
[22] = Toxicity in female Sprague-Dawley rat assessed as slow respiration at 7.5 mg/kg, po administered once daily for 4 weeks; type: organism-based; conditions: in vivo, 672 h
[23] = Toxicity in male Sprague-Dawley rat assessed as slow respiration at 7.5 mg/kg, po administered once daily for 4 weeks and measured after 4 weeks; type: organism-based; conditions: in vivo, 1344 h, time 8 weeks
[24] = Toxicity in female Sprague-Dawley rat assessed as minimal corneal neovascularization at 7.5 mg/kg, po administered once daily for 4 weeks; type: organism-based; conditions: in vivo, 672 h
[25] = Toxicity in female Sprague-Dawley rat assessed as corneal epithelial degeneration at 7.5 mg/kg, po administered once daily for 4 weeks; type: organism-based; conditions: in vivo, 672 h
[26] = Toxicity in female Beagle dog assessed as change in blood pressure at 0.75 to 2.5 mg/kg, IG administered once daily for 4 weeks and measured after 4 weeks; type: organism-based, Canis lupus familiaris; conditions: in vivo, po, 1344 h, dose 0.75-2.5 mg/kg, time 8 weeks
[27] = Toxicity in female Beagle dog assessed as change in urinalysis at 0.75 to 2.5 mg/kg, IG administered once daily for 4 weeks and measured after 4 weeks; type: organism-based, Canis lupus familiaris; conditions: in vivo, po, 1344 h, dose 0.75-2.5 mg/kg, time 8 weeks
[28] = Toxicity in male Beagle dog assessed as change in gross necropsy at 0.75 to 2.5 mg/kg, IG administered once daily for 4 weeks and measured after 4 weeks; type: organism-based, Canis lupus familiaris; conditions: in vivo, po, 1344 h, dose 0.75-2.5 mg/kg, time 8 weeks
[29] = Toxicity in female Beagle dog assessed as change in gross necropsy at 0.75 to 2.5 mg/kg, IG administered once daily for 4 weeks and measured after 4 weeks; type: organism-based, Canis lupus familiaris; conditions: in vivo, po, 1344 h, dose 0.75-2.5 mg/kg, time 8 weeks
[30] = Toxicity in female Beagle dog assessed as somnolence at 2.5 mg/kg, IG administered once daily for 4 weeks and measured after 4 weeks; type: organism-based, Canis lupus familiaris; conditions: in vivo, po, 1344 h, time 8 weeks
[31] = Toxicity in male Beagle dog assessed as minimal decrease activity at 2.5 mg/kg, IG administered once daily for 4 weeks and measured after 4 weeks; type: organism-based, Canis lupus familiaris; conditions: in vivo, po, 1344 h, time 8 weeks

c1cc2c(s1)[C@@H]1CNCCN1CC2
EC50 [1]: 246 nM | Activity [2]: inactive | Activity [3]: inactive | fraction unbound [4]: 0.759 | IC50 [5]: > 50 µM | EC50 [6]: 74.4 nM | Emax [7]: 65.5% | Activity [8]: 47.9% | Activity [9]: 45.9% | Activity [10]: -12.2% | Activity [11]: 33.7% | Activity [12]: 28.9% | Activity [13]: 23.8% | Activity [14]: Non-toxic | Activity [15]: Non-toxic | Activity [16]: Non-toxic | Activity [17]: Non-toxic | Activity [18]: Non-toxic | Activity [19]: Non-toxic | Activity [20]: Non-toxic | Activity [21]: Toxic | Activity [22]: Toxic | Activity [23]: Non-toxic | Activity [24]: Toxic | Activity [25]: Toxic | Activity [26]: Non-toxic | Activity [27]: Non-toxic | Activity [28]: Non-toxic | Activity [29]: Non-toxic | Activity [30]: Non-toxic | Activity [31]: Non-toxic
